This is an account of results in patent publication US12059418B2, “Plasmodial surface anion channel inhibitors for the treatment or prevention of malaria” (The United States of America, as represented by the …, priority 2011, dated 2024).

In data set [1] the test system is PSAC. Kind of data set: Transport inhibition in 22 different laboratory parasite lines. It is filed as cell-based, P. falciparum.
In a further data set the test system is HB3 channels. Put plainly: Cell-attached patch-clamp of HB3-infected erythrocytes. Conditions: 10 μM, 1.1 M Cl−.
In data set [2] the target is PSAC of Dd2 transfectant expressing HB3 allele for PFC0120w (clag 3.1) (Plasmodium falciparum, UniProt O77310). Conditions: read-out: transfectant K0.5; PFC0120w (clag 3.1) HB3 allele in Dd2.
For a further data set, the system named is Dd2 parasites. Kind of data set: In vitro parasite growth inhibition, Dd2. It is filed as cell-based, P. falciparum.
A further data set has as its system Dd2 channels. Kind of data set: Cell-attached patch-clamp of Dd2-infected erythrocytes. The note with it: 10 μM, 1.1 M Cl−.
For data set [3], the target named is T1, PSAC of Dd2 transfectant expressing HB3 allele for PFC0110w (clag 3.2) (Plasmodium falciparum, UniProt O77309).
T1 sequence (O77309 25-1416): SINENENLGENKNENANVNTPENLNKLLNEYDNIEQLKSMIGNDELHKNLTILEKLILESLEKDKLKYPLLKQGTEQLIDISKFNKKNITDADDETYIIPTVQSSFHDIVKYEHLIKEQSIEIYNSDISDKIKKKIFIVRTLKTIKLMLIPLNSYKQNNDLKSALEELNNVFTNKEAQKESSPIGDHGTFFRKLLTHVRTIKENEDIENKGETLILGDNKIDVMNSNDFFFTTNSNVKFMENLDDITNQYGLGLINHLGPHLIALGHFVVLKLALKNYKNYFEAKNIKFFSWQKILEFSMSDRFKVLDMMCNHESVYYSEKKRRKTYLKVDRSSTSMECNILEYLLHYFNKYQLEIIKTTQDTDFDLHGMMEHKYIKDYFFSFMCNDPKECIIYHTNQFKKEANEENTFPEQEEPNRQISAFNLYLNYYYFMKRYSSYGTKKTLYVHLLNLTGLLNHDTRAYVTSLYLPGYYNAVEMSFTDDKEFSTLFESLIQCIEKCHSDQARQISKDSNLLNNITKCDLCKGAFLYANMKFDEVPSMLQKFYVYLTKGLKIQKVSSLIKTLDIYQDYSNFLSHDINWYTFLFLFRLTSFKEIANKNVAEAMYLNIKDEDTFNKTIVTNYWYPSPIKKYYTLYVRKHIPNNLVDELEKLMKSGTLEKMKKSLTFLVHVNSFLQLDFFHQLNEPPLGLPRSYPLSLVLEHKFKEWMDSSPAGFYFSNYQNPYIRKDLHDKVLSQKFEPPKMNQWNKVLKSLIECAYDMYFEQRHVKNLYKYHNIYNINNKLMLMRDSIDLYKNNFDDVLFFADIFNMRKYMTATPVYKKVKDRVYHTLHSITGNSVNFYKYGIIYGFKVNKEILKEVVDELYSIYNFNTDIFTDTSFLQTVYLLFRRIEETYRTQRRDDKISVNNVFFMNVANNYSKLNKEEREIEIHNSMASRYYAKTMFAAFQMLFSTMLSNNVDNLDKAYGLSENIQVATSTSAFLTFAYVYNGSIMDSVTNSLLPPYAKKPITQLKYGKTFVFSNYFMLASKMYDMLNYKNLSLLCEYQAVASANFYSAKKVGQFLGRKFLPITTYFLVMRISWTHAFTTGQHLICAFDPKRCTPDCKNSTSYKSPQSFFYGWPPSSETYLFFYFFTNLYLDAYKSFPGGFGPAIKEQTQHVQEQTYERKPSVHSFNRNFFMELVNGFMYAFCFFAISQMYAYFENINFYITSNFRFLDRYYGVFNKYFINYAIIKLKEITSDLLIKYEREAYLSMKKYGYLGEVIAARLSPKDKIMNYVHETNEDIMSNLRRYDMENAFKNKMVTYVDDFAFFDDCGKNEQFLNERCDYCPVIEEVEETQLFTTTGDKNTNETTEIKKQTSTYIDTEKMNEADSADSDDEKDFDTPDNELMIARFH
Kind of data set: Sorbitol uptake inhibition, Dd2 transfectant expressing HB3 allele of PFC0110w. Conditions: read-out: transfectant K0.5; PFC0110w (clag 3.2) HB3 allele in Dd2.

In data set [4] the test system is PSAC activity on HB3^3rec. It is filed as cell-based, P. falciparum. The note with it: HB3^3rec before selection.
In data set [5] the test system is channels from HB3 parasites. Put plainly: Sorbitol uptake osmotic lysis, HB3-infected cells. It is filed as cell-based, P. falciparum. Conditions: read-out: K0.5. How it is done:
Inhibitor affinity for PSAC block was determined using a quantitative transmittance assay based on osmotic lysis of infected cells in sorbitol (Wagner et al., Biophys. J., 84: 116-123 (2003)). […] Other inhibitors had dose responses that are adequately fitted by a single Langmuir isotherm.

A short description of data set [6]: Inhibitor metabolism in parasite culture. The note with it: 40 μM, 37° C., 72 h in Dd2 culture. It is filed as in vitro ADME, P. falciparum. The procedure:
To examine possible inhibitor metabolism in parasite culture, Dd2 parasites were cultivated in standard media with 40 μM ISPA-28 at 37° C. for 72 h. After centrifugation, the culture supernatant was used as a source of ISPA-28 for comparison to freshly-prepared compound in transport inhibition studies.

The test system of the next data set is HB3^3rec. Kind of data set: In vitro parasite growth inhibition, HB3^3rec in PLM. It is filed as cell-based, P. falciparum. The note with it: after transport-based selection.
Data set [7] deals with PSAC on Dd2-infected cells. It is filed as cell-based, P. falciparum. Conditions: Dd2 vs. HB3.
Data set [8] relates to PSAC. Put plainly: Uptake of alanine, proline and PhTMA by osmotic lysis. It counts as cell-based, P. falciparum. The text has this: ISPA-28 effects on uptake of the amino acids alanine and proline as well as the organic cation phenyl-trimethylammonium (PhTMA), solutes with known increases in permeability after infection (Ginsburg et al., Mol. Biochem. Parasitol. 14: 313-22 (1985); Bokhari et al., J. Membr. Biol. 226: 27-34 (2008)), were also examined.

For another data set, the system named is HB3 parasites. Kind of data set: In vitro parasite growth inhibition, HB3. It counts as cell-based, P. falciparum. Conditions: Plasmodium falciparum.
In data set [9] the target is T2, channels associated with clag3.2 gene from Dd2 (Plasmodium falciparum, UniProt A0A1W6IZK1).
T2 construct: rows headed: K0.5; other: clag3.2 from Dd2
Put plainly: PSAC inhibition, 7C20 channels associated with clag3.2. The note with it: read-out: K0.5; clag3.2 from Dd2. It counts as cell-based, P. falciparum. The procedure:
(§1) A PSAC inhibitor with reversed specificity for the two Dd2 clag3 products was next sought. To this end, hits from the high-throughput screen of Example 2 were surveyed using the progeny clone 7C20 before and after selection for clag3.1 expression. This secondary screen identified ISPA-43 as a PSAC inhibitor with an allele specificity opposite that of ISPA-28 (Formula B below (K0.5 of 32 and 3.9 μM for channels associated with clag3.1 and clag3.2 genes from Dd2, respectively).

For data set [10], the system named is channels associated with clag3.2 gene from Dd2. Described as above. It is filed as cell-based, P. falciparum. The procedure: as §1
In data set [11] the target is channels associated with clag3.1 gene from Dd2 (Plasmodium falciparum, UniProt O77310). Put plainly: PSAC inhibition, 7C20 channels associated with clag3.1. It is filed as cell-based, P. falciparum. The note with it: clag3.1 from Dd2; read-out: K0.5. How it is done: as §1
channels associated with clag3.1 gene from Dd2, sequence (O77310 whole entry, looked up): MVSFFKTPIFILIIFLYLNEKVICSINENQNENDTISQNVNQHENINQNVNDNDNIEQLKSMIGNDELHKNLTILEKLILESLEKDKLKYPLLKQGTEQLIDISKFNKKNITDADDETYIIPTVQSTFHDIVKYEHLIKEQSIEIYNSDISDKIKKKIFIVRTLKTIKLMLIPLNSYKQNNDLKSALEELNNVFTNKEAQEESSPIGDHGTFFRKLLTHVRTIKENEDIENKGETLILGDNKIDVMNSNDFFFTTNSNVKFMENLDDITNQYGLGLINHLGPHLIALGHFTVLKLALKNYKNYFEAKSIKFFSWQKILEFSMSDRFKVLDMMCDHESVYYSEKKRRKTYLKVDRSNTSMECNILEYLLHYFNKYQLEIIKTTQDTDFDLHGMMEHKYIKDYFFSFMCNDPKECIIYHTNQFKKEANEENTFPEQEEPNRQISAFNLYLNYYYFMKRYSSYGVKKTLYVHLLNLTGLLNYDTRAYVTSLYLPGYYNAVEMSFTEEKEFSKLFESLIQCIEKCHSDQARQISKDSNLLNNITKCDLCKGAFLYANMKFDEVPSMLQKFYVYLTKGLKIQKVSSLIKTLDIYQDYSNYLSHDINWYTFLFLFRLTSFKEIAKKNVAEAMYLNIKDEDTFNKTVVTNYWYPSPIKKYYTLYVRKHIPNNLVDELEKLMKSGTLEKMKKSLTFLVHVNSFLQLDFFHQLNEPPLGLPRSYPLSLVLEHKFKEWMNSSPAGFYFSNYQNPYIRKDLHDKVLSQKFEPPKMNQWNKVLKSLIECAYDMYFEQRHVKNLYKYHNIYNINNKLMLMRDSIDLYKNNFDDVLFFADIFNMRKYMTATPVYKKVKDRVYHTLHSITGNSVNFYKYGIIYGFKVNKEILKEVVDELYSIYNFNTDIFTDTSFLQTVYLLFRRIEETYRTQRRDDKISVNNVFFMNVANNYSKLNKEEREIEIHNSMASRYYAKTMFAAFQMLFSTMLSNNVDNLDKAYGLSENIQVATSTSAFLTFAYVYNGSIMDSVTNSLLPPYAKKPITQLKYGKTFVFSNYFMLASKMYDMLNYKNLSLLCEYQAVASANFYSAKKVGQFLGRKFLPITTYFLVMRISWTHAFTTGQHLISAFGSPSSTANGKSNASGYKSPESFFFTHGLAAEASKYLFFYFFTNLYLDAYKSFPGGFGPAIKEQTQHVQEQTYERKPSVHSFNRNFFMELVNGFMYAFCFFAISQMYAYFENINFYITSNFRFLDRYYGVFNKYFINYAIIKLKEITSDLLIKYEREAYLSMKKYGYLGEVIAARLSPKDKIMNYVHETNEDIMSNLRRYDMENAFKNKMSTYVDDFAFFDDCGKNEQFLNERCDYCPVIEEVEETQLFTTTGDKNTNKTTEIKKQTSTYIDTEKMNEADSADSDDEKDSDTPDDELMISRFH

PSAC of Dd2 transfectant expressing HB3 allele for PFC0120w (clag 3.1), sequence (O77310 whole entry, looked up): as above
T2 sequence (A0A1W6IZK1 whole entry, looked up): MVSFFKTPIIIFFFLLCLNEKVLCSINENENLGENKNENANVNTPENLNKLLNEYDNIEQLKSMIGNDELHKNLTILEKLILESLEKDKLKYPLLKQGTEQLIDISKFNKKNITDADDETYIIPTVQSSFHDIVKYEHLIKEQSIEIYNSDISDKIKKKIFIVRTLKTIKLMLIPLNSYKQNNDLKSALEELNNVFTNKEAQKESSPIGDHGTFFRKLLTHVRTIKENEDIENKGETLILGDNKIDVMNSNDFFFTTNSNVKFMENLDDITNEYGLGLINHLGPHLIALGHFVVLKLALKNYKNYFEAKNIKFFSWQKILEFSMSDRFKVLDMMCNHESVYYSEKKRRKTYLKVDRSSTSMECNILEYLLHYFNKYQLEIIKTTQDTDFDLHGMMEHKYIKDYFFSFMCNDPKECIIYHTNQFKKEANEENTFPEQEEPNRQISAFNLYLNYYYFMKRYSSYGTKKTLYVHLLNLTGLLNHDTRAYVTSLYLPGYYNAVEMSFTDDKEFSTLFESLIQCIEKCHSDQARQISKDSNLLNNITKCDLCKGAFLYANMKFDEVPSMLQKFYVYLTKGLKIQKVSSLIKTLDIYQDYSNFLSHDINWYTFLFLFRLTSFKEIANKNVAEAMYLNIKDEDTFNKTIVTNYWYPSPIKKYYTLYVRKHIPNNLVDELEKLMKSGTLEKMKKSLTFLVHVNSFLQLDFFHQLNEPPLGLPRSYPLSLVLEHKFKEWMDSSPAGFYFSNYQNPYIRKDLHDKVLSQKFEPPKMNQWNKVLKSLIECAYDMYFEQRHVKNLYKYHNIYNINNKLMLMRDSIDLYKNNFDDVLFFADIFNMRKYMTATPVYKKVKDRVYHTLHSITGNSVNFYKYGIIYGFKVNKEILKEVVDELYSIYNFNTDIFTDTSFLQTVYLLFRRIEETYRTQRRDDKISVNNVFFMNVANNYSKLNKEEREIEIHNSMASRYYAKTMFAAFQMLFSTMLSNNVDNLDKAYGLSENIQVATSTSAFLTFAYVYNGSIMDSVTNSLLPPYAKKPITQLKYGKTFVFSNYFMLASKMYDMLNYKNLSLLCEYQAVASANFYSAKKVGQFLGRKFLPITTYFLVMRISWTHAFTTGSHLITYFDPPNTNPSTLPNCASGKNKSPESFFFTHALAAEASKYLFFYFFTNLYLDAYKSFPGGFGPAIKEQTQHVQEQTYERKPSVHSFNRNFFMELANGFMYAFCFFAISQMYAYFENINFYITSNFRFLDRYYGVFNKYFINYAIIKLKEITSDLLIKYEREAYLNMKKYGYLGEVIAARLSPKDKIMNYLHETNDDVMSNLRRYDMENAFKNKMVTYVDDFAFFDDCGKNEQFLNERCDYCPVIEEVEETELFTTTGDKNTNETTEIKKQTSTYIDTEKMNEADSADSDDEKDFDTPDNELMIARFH

For `CCn1cc(C2=NOC(C(=O)Nc3c(C)n(C)n(-c4ccccc4)c3=O)C2)c(C)n1` (stereo not shown) [ISPA-28], the “transport inhibition in 22 laboratory parasite lines” value with PSAC [1] is “significant transport inhibition was found with only Dd2 and W2”. Also, the “single PSAC channel inhibition” value in the data set on HB3 channels is reported as “largely unaffected”; with Dd2 channels, “near-fully inhibited”. Further, the IC50 was 0.14 ± 0.012 µM in [2]; 0.66 ± 0.2 µM in the data set with Dd2 parasites (Plasmodium falciparum, DD2, PLM); greater than 40 µM with Dd2 parasites (Plasmodium falciparum, DD2, RPMI-based media); roughly 50 µM with Dd2 parasites (RPMI-based media); 0.095 ± 0.008 µM in data set [3]; 43 ± 2 µM in data set [5]. Moreover, the IC50 is 52 ± 19 µM in the data set with HB3 parasites (HB3, PLM) and greater than 40 µM with HB3 parasites (HB3, RPMI-based media). Besides, the “channel's ISPA-28 affinity” value in data set [4] is “intermediate between those of HB3 and Dd2”. Further, the “efficacy after metabolism under in vitro culture conditions” value in data set [6] was “not compromised by metabolism”. The growth inhibition sensitivity entry in the data set with HB3^3rec is given as “sensitive to ISPA-28 at levels matching Dd2”. Besides, the “difference in half-maximal affinities” value in data set [7] was roughly 800 fold. Moreover, the “effects on uptake of alanine, proline and phenyl-trimethylammonium (PhTMA)” value with PSAC [8] is listed as “inhibited with dose responses matching those for sorbitol”.

As for `CCC(CC)C(=O)Nc1ncc2c(n1)CC(c1ccc(OC)c(OC)c1)CC2=O` (stereo not shown) [ISPA-43], the results for the IC50 in data set [9] and in data set [11] were 3.9 µM and 32 µM, respectively. In addition, the “higher affinity for channels formed by Dd2 clag3.2 than clag3.1” value in data set [10] turned out to be 10 fold.
